{"source": "patent US20130302305A1", "about": "“Methods for Treating Gout in Patients Subpopulations” (Metabolex, Inc., priority 2011, published 2013)", "key": {"[1]": {"system": "type 2 diabetic patients", "test": "Pooled analysis of four phase 2 studies: change in serum uric acid (sUA) from baseline", "format": "in vivo, human", "conditions": "for reduction in serum uric acid from baseline: all analysed patients, 12-24 weeks (pooled)", "procedure": "(§1) FIGS. 1-4 were generated based on the pooled analysis of four phase 2 studies conducted with (−)-halofenate in type 2 diabetic patients. In these studies a total of 955 patients were enrolled. In the M102-20303 study, two dose levels of (−)-halofenate (200 mg and 400 mg) or placebo were given orally daily to a total of 217 patients for 12 weeks. In the M102-20405 study, (−)-halofenate at a dose of 600 mg or placebo was given daily to a total of 100 patients for 12 weeks. In the M102-20509 study, three dose levels of (−)-halofenate (200 mg, 400 mg and 600 mg), Actos® 30 mg or placebo were given orally daily to a total of 396 patients for 16 weeks. In M102-20814 study, two dose levels of (−)-halofenate (400 mg and 600 mg), Actos® 30-45 mg or placebo were given orally daily to a total of 242 patients for 24 weeks. In these studies, change in serum uric acid (sUA) from baseline was one of the important endpoints. In order to maintain the blinded status, the sUA results following administration of double-blind study medication were not available to any parties until the studies were unblinded. Patients who added or changed the existing doses of medications that are known to influence serum uric acid levels were excluded from the serum uric acid analysis. Patients received either (−)-halofenate or matching placebo during the study were included in this exploratory analysis. Patients who received (−)-halofenate during the study but had no measurable (−)-halofenate in the blood were defined as non-compliant and were excluded from the analysis. This analysis indicated statistically significant dose dependent reduction in serum uric acid from baseline: 2% in the placebo group (n=252), −11% in the 200 mg group (n=125), −20% in the 400 mg group (n=174), and −27% in the 600 mg group (n=159); p<0.0001 for all dose groups. In order to evaluate the sUA response in CKD patients, in addition to the analysis described above, the patients were subdivided based on their baseline kidney function status. The kidney function status of each patient was evaluated by estimating the creatinine clearance (glomerular filtration rate) using the Cockcroft-Gault equation [Cockcroft-Gault GFR=(140−age)×(Body weight in kg)×(0.85 if female)/(72×serum creatinine)]. For estimating the baseline creatinine clearance, baseline body weight (kg) and baseline serum creatinine values were used and similarly, for estimating the end-of-the study creatinine clearance, end-of-study body weight and end-of-study serum creatinine values were used. […] In this analysis there were no patients with CKD4 (severe CKD) or CKD5 (kidney failure)."}, "[2]": {"system": "type 2 diabetes patients inadequately controlled on existing insulin therapy", "test": "Phase 2 study M102-20303: triglycerides", "format": "in vivo, human", "conditions": "CKD2 and CKD3 (mild to moderate CKD) patients, 400 mg daily for 12 weeks", "procedure": "(§2) FIGS. 5-7 were generated based on a randomized, double-blind, placebo-controlled phase 2 study, M102-20303. In this study, two dose levels of (−)-halofenate (200 mg and 400 mg) or placebo were given orally daily for 12 weeks to a total of 217 type 2 diabetes patients who were inadequately controlled on existing insulin therapy. In addition to their stable dose of insulin, these patients received the study drug for 12 weeks, and followed up for an additional four weeks. In this study, change in HbA1c from baseline at week 16 was the primary endpoint and changes in fasting plasma glucose and triglyceride from baseline at Week 12 were secondary endpoints. In order to maintain the blinded status, the HbA1c results following administration of double-blind study medication were not available to any parties until the studies were unblinded. In this study, patients were not allowed to add any other glucose lowering agent(s) or to change their existing doses of insulin. Patients who added lipid lowering agent(s) or changed their existing doses of lipid lowering agent(s) were excluded from the triglyceride analysis. Patients who received (−)-halofenate during the study but had no measurable (−)-halofenate in the blood were defined as non-compliant and were excluded from the analysis."}, "[3]": {"system": "type 2 diabetes patients inadequately controlled on existing insulin therapy", "test": "Phase 2 study M102-20303: fasting plasma glucose (FPG)", "format": "in vivo, human", "conditions": "for mean observed change in FPG from baseline at Week 12: all patients", "procedure": "as §2"}, "[4]": {"system": "type 2 diabetes patients inadequately controlled on existing insulin therapy", "test": "Phase 2 study M102-20303: HbA1c", "format": "in vivo, human", "conditions": "for reduction from baseline in HbA1c: all patients, endpoint at week 16", "procedure": "as §2"}, "[5]": {"system": "type 2 diabetic patients", "test": "Pooled analysis of four phase 2 studies: estimated creatinine clearance (Cockcroft-Gault), kidney function status", "format": "in vivo, human", "conditions": "for Mean Baseline estimated Cr Cl (mL/min) (second column of that head, c3): all analysed patients", "procedure": "as §1\nThe changes in estimated creatinine clearance values in the 200 mg, 400 mg, and 600 mg groups compared to placebo group were not statistically significant."}, "[6]": {"system": "gout patients", "conditions": "monotherapy at 40, 80, 120, 160 and 240 mg/day; cited from earlier work"}, "[7]": {"conditions": "CKD2 and CKD3 (mild to moderate CKD) patients, 400 mg daily for 12 weeks"}}, "note": "Values joined by “and” are separate entries in the source; they are usually repeats but may differ in a detail not shown here. Identical values can stand only once.", "data": [{"smiles": "CC(=O)NCCOC(=O)[C@H](Oc1cccc(C(F)(F)F)c1)c1ccc(Cl)cc1", "note": "[(−)-halofenate, (−)-(R)-(4-chloro-phenyl)-(3-trifluoromethyl-phenoxy)-acetic acid 2-acetylamino-ethyl ester]", "values": [{"measurement": "Mean Change in sUA (%)", "setting": "[1]; 200 mg daily, CKD2 and CKD3 patients", "value": "−14% and −14.30%"}, {"measurement": "Mean Change in sUA (%)", "setting": "[1]; 400 mg daily, CKD2 and CKD3 patients", "value": "−21% and −21.30%"}, {"measurement": "Mean Change in sUA (%)", "setting": "[1]; 600 mg daily, CKD2 (mild CKD) patients", "value": "−28% and −28.2%"}, {"measurement": "Mean Change in sUA (%)", "setting": "[1]; 600 mg daily, CKD2 and CKD3 patients", "value": "−29", "unit": "%"}, {"measurement": "Mean Change in sUA (%)", "setting": "[1]; 600 mg daily, CKD3 (moderate CKD) patients", "value": "−36% and −35.6%"}, {"measurement": "Mean Change in sUA (%)", "setting": "[1]; 600 mg daily, Normal and CKD1 patients", "value": "−25% and −25.3%"}, {"measurement": "urate-lowering effect when co-administered with aspirin", "setting": "[1]; 200, 400 and 600 mg daily with low to medium doses of aspirin (<= about 325 mg/day) vs no aspirin", "value": "does not result in clinically significant loss of the urate-lowering effect"}, {"measurement": "urate-lowering effect when co-administered with diuretics", "setting": "[1]; 200, 400 and 600 mg daily with thiazide or other diuretics vs no diuretics", "value": "does not result in clinically significant loss of the urate-lowering effect"}, {"measurement": "reduction in serum uric acid from baseline", "setting": "[1]; 200 mg orally daily", "value": "−11", "unit": "%"}, {"measurement": "reduction in serum uric acid from baseline", "setting": "[1]; 400 mg orally daily", "value": "−20", "unit": "%"}, {"measurement": "reduction in serum uric acid from baseline", "setting": "[1]; 600 mg orally daily", "value": "−27", "unit": "%"}, {"measurement": "change in serum uric acid (sUA) from baseline", "setting": "[1]; aspirin treated patients (<= about 325 mg/day), 200 mg daily", "value": "−13", "unit": "%"}, {"measurement": "change in serum uric acid (sUA) from baseline", "setting": "[1]; aspirin treated patients (<= about 325 mg/day), 400 mg daily", "value": "−20", "unit": "%"}, {"measurement": "change in serum uric acid (sUA) from baseline", "setting": "[1]; aspirin treated patients (<= about 325 mg/day), 600 mg daily", "value": "−27", "unit": "%"}, {"measurement": "change in serum uric acid (sUA) from baseline", "setting": "[1]; patients not taking any diuretics, 200 mg daily", "value": "−11", "unit": "%"}, {"measurement": "change in serum uric acid (sUA) from baseline", "setting": "[1]; patients not taking any diuretics, 400 mg daily", "value": "−21", "unit": "%"}, {"measurement": "change in serum uric acid (sUA) from baseline", "setting": "[1]; patients not taking any diuretics, 600 mg daily", "value": "−27", "unit": "%"}, {"measurement": "change in serum uric acid (sUA) from baseline", "setting": "[1]; patients not taking aspirin, 200 mg daily", "value": "−10", "unit": "%"}, {"measurement": "change in serum uric acid (sUA) from baseline", "setting": "[1]; patients not taking aspirin, 400 mg daily", "value": "−20", "unit": "%"}, {"measurement": "change in serum uric acid (sUA) from baseline", "setting": "[1]; patients not taking aspirin, 600 mg daily", "value": "−26", "unit": "%"}, {"measurement": "change in serum uric acid (sUA) from baseline", "setting": "[1]; patients taking any diuretics, 200 mg daily", "value": "−12", "unit": "%"}, {"measurement": "change in serum uric acid (sUA) from baseline", "setting": "[1]; patients taking any diuretics, 400 mg daily", "value": "−15", "unit": "%"}, {"measurement": "change in serum uric acid (sUA) from baseline", "setting": "[1]; patients taking any diuretics, 600 mg daily", "value": "−24", "unit": "%"}, {"measurement": "change in serum uric acid (sUA) from baseline", "setting": "[1]; thiazide diuretic treated patients, 200 mg daily", "value": "−16", "unit": "%"}, {"measurement": "change in serum uric acid (sUA) from baseline", "setting": "[1]; thiazide diuretic treated patients, 400 mg daily", "value": "−17", "unit": "%"}, {"measurement": "change in serum uric acid (sUA) from baseline", "setting": "[1]; thiazide diuretic treated patients, 600 mg daily", "value": "−24", "unit": "%"}, {"measurement": "Change in triglyceride", "setting": "[2]", "value": -33.6, "unit": "mg/dL"}, {"measurement": "End-of-study triglyceride", "setting": "[2]", "value": 168.6, "unit": "mg/dL"}, {"measurement": "Change in FPG (%)", "setting": "[3]; [7]", "value": "−18.0% and −17.6%"}, {"measurement": "End-of-study FPG", "setting": "[3]; [7]", "value": 136.5, "unit": "mg/dL"}, {"measurement": "mean observed change in FPG from baseline at Week 12", "setting": "[3]; 200 mg daily", "value": -10.9, "unit": "mg/dL"}, {"measurement": "mean observed change in FPG from baseline at Week 12", "setting": "[3]; 400 mg daily", "value": -29.2, "unit": "mg/dL"}, {"measurement": "Change in HbA1c (%)", "setting": "[4]; [7]", "value": "−1.1", "unit": "%"}, {"measurement": "End-of-study HbA1c (%)", "setting": "[4]; [7]", "value": 8.1, "unit": "%"}, {"measurement": "reduction from baseline in HbA1c", "setting": "[4]; 200 mg daily for 12 weeks on stable insulin", "value": "−0.9", "unit": "%"}, {"measurement": "reduction from baseline in HbA1c", "setting": "[4]; 400 mg daily for 12 weeks on stable insulin", "value": "−1.0", "unit": "%"}, {"measurement": "Mean Baseline estimated Cr Cl (mL/min) (second column of that head, c3)", "setting": "[5]; 200 mg daily", "value": 102.4, "unit": "mL/min"}, {"measurement": "change in CrCL as compared to placebo", "setting": "[5]; 200 mg, 400 mg and 600 mg per day (FIG. 4)", "value": "no clinically significant change in CrCL"}, {"measurement": "Mean Baseline estimated Cr Cl (mL/min) (second column of that head, c3)", "setting": "[5]; 400 mg daily", "value": 103.5, "unit": "mL/min"}, {"measurement": "Mean Baseline estimated Cr Cl (mL/min) (second column of that head, c3)", "setting": "[5]; 600 mg daily", "value": 100.6, "unit": "mL/min"}]}, {"smiles": "O=c1[nH]cnc2c(CN3C[C@H](CO)[C@@H](O)C3)c[nH]c12", "note": "[Ulodesine, 7-(((3R,4R)-3-hydroxy-4-(hydroxymethyl)pyrrolidin-1-yl)methyl)-3H-pyrrolo[3,2-d]pyrimidin-4(5H)-one]", "values": [{"measurement": "effect on serum uric acid", "setting": "[6]", "value": "rapidly and significantly reduced serum uric acid"}]}]}
